The values below come from ChEMBL document CHEMBL5543086, “Discovery of novel NSAID hybrids as cPLA2/COX-2 dual inhibitors alleviating rheumatoid arthritis via inhibiting p38 MAPK pathway” (Eur J Med Chem, 2024).

Molecules are shown by their SMILES. pIC50: −log10 of the molar value.

For orientation: pIC50 means the IC50 on a negative log10 scale, so that one unit is a factor of ten.

The test system of the first data set is RAW264.7. Description: Cytotoxicity against LPS-induced mouse RAW264.7 cells assessed as reduction in cell viability at 30 uM pretreated for 1 hr followed by LPS addition and measured after 24 hrs by MTT assay. Format: toxicity, cell-based. To be noted: raw264.7, 25 h.
For the molecule `CCCCCCCCCCCCCCCCCCCC/C=C(/OC(=O)C(C)c1ccc(-c2ccccc2)c(F)c1)C(F)(F)F` (centres undefined), the Activity entry is “Non-Toxic”.
Regarding `CCCCC/C=C\C/C=C\CCCCCC/C=C(/OC(=O)C(C)c1ccc(-c2ccccc2)c(F)c1)C(F)(F)F` (centres undefined), the Activity entry is on record as “Non-Toxic”.
Consider `CCCCCCCCCC/C=C(/OC(=O)c1ccccc1OC(C)=O)C(F)(F)F`, for which the Activity entry is reported as “Non-Toxic”.
Consider `CCCCCCCCCC/C=C(/OC(=O)[C@@H](C)c1ccc2cc(OC)ccc2c1)C(F)(F)F`, for which the Activity entry is given as “Non-Toxic”.
The same measure, in the same setting: as for `CCCCC/C=C\C/C=C\C/C=C\C/C=C\CCCC(=O)C(F)(F)F` [ARACHIDONYL TRIFLUOROMETHYLKETONE], the entry is “Non-Toxic”; as for `CCCCCCCCCCCCCCCC/C=C(/OC(=O)C(C)c1ccc(-c2ccccc2)c(F)c1)C(F)(F)F` (centres undefined), “Non-Toxic”.
On the same count and under the same terms, the value for `CCCCCCCCCCCCCCCCCC/C=C(/OC(=O)C(C)c1ccc(-c2ccccc2)c(C)c1)C(F)(F)F` (centres undefined) was “Non-Toxic”.
The same measure, in the same setting: as for `CCCCCCCCCCCCCCCC/C=C(/OC(=O)C(C)c1ccc(CC(C)C)cc1)C(F)(F)F` (centres undefined), the entry is “Non-Toxic”; as for `C=CCCCCCCC/C=C(/OC(=O)C(C)c1ccc(-c2ccccc2)c(F)c1)C(F)(F)F` (centres undefined), “Non-Toxic”.
Consider `CCCCCCCCCC/C=C(/OC(=O)C(C)c1ccc(CC(C)C)cc1)C(F)(F)F` (centres undefined), for which the Activity entry was “Non-Toxic”.
As for `CCCCCC/C=C(/OC(=O)C(C)c1ccc(CC(C)C)cc1)C(F)(F)F` (centres undefined), the Activity result is recorded as “Non-Toxic”.
Turning to `CCCCCCCCCCCCCC/C=C(/OC(=O)C(C)c1ccc(CC(C)C)cc1)C(F)(F)F` (centres undefined), the Activity result is on record as “Non-Toxic”.
Regarding `CCCCCCCC/C=C\CCCCCC/C=C(/OC(=O)c1ccccc1OC(C)=O)C(F)(F)F`, the Activity result was “Non-Toxic”.
On to `CCCCCCCC/C=C\CCCCCCCCCC/C=C(/OC(=O)c1ccccc1OC(C)=O)C(F)(F)F`, for which the Activity entry was “Non-Toxic”.
In the case of `CCCCC/C=C\C/C=C\CCCCCC/C=C(/OC(=O)C(C)c1ccc(C(=O)c2ccccc2)cc1)C(F)(F)F` (centres undefined), the Activity result was “Non-Toxic”.
Regarding `CCCCCCCC/C=C(/OC(=O)[C@@H](C)c1ccc2cc(OC)ccc2c1)C(F)(F)F`, the Activity result is “Non-Toxic”.
As to `CCCCCCCCCCCCCCCCCC/C=C(/OC(=O)c1ccccc1OC(C)=O)C(F)(F)F`, the Activity result is listed as “Non-Toxic”.
With `CCCCC/C=C\C/C=C\C/C=C\C/C=C\CC/C=C(/OC(=O)C(C)c1ccc(-c2ccccc2)c(F)c1)C(F)(F)F` (centres undefined), the Activity result is on record as “Non-Toxic”.
The same measure, in the same setting: the value for `CCCCC/C=C\C/C=C\C/C=C\C/C=C\CC/C=C(/OC(=O)c1ccccc1OC(C)=O)C(F)(F)F` was “Non-Toxic”.
The same measure, in the same setting: the value for `CCCCCCCCCCCCCCCCC/C=C(/OC(=O)C(C)c1ccc(CC(C)C)cc1)C(F)(F)F` (centres undefined) was “Non-Toxic”; that for `CCCC/C=C(/OC(=O)C(C)c1ccc(CC(C)C)cc1)C(F)(F)F` (centres undefined) was “Non-Toxic”; that for `CCCCCCCCCCCCCC/C=C(/OC(=O)C(C)c1ccc(-c2ccccc2)c(F)c1)C(F)(F)F` (centres undefined) was “Non-Toxic”.
In the case of `CCCCCCCC/C=C\CCCCCCCCCC/C=C(/OC(=O)C(C)c1ccc(CC(C)C)cc1)C(F)(F)F` (centres undefined), the Activity result is recorded as “Non-Toxic”.
For the molecule `CCCCC/C=C\C/C=C\CCCCCC/C=C(/OC(=O)C(C)c1ccc(CC(C)C)cc1)C(F)(F)F` (centres undefined), the Activity entry is listed as “Non-Toxic”.
As for `CCCCCC/C=C(/OC(=O)c1ccccc1OC(C)=O)C(F)(F)F`, the Activity result was “Non-Toxic”.
On the same count and under the same terms, the value for `CCCCCCC/C=C(/OC(=O)C(C)c1ccc(CC(C)C)cc1)C(F)(F)F` (centres undefined) was “Non-Toxic”.
With `CCCCC/C=C\C/C=C\CCCCCC/C=C(/OC(=O)[C@@H](C)c1ccc2cc(OC)ccc2c1)C(F)(F)F`, the Activity result is on record as “Non-Toxic”.
Turning to `CCCCC/C=C\C/C=C\CCCCCC/C=C(/OC(=O)c1ccccc1OC(C)=O)C(F)(F)F`, the Activity result is “Non-Toxic”.
`CCCCCCCC/C=C\CCCCCC/C=C(/OC(=O)C(C)c1ccc(-c2ccccc2)c(F)c1)C(F)(F)F` (centres undefined): the Activity entry is listed as “Non-Toxic”.
Take `CCCCCCCCCCCCCC/C=C(/OC(=O)c1ccccc1OC(C)=O)C(F)(F)F`: the Activity result is “Non-Toxic”.
Same read-out and setting: as for `CCCCCCCCCCCCCCCCCCCC/C=C(/OC(=O)C(C)c1ccc(CC(C)C)cc1)C(F)(F)F` (centres undefined), the entry is “Non-Toxic”; as for `CCC/C=C(/OC(=O)C(C)c1ccc(CC(C)C)cc1)C(F)(F)F` (centres undefined), “Non-Toxic”.
Still for that read-out and setting: the value for `CCCCCCC/C=C(/OC(=O)[C@@H](C)c1ccc2cc(OC)ccc2c1)C(F)(F)F` was “Non-Toxic”; that for `CCCCCCCC/C=C\CCCCCC/C=C(/OC(=O)C(C)c1ccc(CC(C)C)cc1)C(F)(F)F` (centres undefined) was “Non-Toxic”.
As to `CCCCCCCCCCCCCCC/C=C(/OC(=O)C(C)c1ccc(CC(C)C)cc1)C(F)(F)F` (centres undefined), the Activity entry is on record as “Non-Toxic”.
On to `CCCCCCCCCCCCCCCCCC/C=C(/OC(=O)C(C)c1ccc(C(=O)c2ccccc2)cc1)C(F)(F)F` (centres undefined), for which the Activity result is “Non-Toxic”.
In the case of `CCCCCCCCCCCC/C=C(/OC(=O)c1ccccc1OC(C)=O)C(F)(F)F`, the Activity result is listed as “Non-Toxic”.
`CCCCCCCCCCCCCCCC/C=C(/OC(=O)[C@@H](C)c1ccc2cc(OC)ccc2c1)C(F)(F)F`: the Activity result was “Non-Toxic”.
Still for that read-out and setting: the value for `CCCCCCCC/C=C(/OC(=O)C(C)c1ccc(-c2ccccc2)c(F)c1)C(F)(F)F` (centres undefined) was “Non-Toxic”; that for `CCCCCCCCCCCCCCCCCC/C=C(/OC(=O)C(C)c1ccc(CC(C)C)cc1)C(F)(F)F` (centres undefined) was “Non-Toxic”.
Same read-out and setting: the value for `C=CCCCCCCC/C=C(/OC(=O)[C@@H](C)c1ccc2cc(OC)ccc2c1)C(F)(F)F` was “Non-Toxic”; that for `CCCCCCCCCC/C=C(/OC(=O)C(C)c1ccc(-c2ccccc2)c(F)c1)C(F)(F)F` (centres undefined) was “Non-Toxic”.
Turning to `CCCCCCCC/C=C(/OC(=O)c1ccccc1OC(C)=O)C(F)(F)F`, the Activity result is on record as “Non-Toxic”.
Turning to `CCCCCCCCCCCCCCCC/C=C(/OC(=O)c1ccccc1OC(C)=O)C(F)(F)F`, the Activity entry is reported as “Non-Toxic”.
Still for that read-out and setting: as for `CCCCCCCCCCCCCCCCCCCC/C=C(/OC(=O)c1ccccc1OC(C)=O)C(F)(F)F`, the entry is “Non-Toxic”; as for `CCCCCCC/C=C(/OC(=O)c1ccccc1OC(C)=O)C(F)(F)F`, “Non-Toxic”; as for `CCCCCCCC/C=C\CCCCCC/C=C(/OC(=O)[C@@H](C)c1ccc2cc(OC)ccc2c1)C(F)(F)F`, “Non-Toxic”.
With `CCCCCCC/C=C(/OC(=O)C(C)c1ccc(-c2ccccc2)c(F)c1)C(F)(F)F` (centres undefined), the Activity result is listed as “Non-Toxic”.
The same measure, in the same setting: the value for `CCCCC/C=C\C/C=C\C/C=C\C/C=C\CC/C=C(/OC(=O)[C@@H](C)c1ccc2cc(OC)ccc2c1)C(F)(F)F` was “Non-Toxic”; that for `CCCCCCCCCCCCCC/C=C(/OC(=O)[C@@H](C)c1ccc2cc(OC)ccc2c1)C(F)(F)F` was “Non-Toxic”; that for `CCCCCCCCCC/C=C(/OC(=O)C(C)c1ccc(C(=O)c2ccccc2)cc1)C(F)(F)F` (centres undefined) was “Non-Toxic”.
With `CCCCCCCC/C=C\CCCCCCCCCC/C=C(/OC(=O)[C@@H](C)c1ccc2cc(OC)ccc2c1)C(F)(F)F`, the Activity entry is “Non-Toxic”.
Consider `CCCCCCCC/C=C\CCCCCCCCCC/C=C(/OC(=O)C(C)c1ccc(-c2ccccc2)c(F)c1)C(F)(F)F` (centres undefined), for which the Activity entry is “Non-Toxic”.
On to `CCCCC/C=C\C/C=C\C/C=C\C/C=C\CC/C=C(/OC(=O)C(C)c1ccc(CC(C)C)cc1)C(F)(F)F` (centres undefined), for which the Activity entry is reported as “Non-Toxic”.
On to `CCCCCCCCCCCC/C=C(/OC(=O)C(C)c1ccc(CC(C)C)cc1)C(F)(F)F` (centres undefined), for which the Activity entry is recorded as “Non-Toxic”.
As to `CCCCCCCCCCCC/C=C(/OC(=O)[C@@H](C)c1ccc2cc(OC)ccc2c1)C(F)(F)F`, the Activity result is recorded as “Non-Toxic”.
As for `CCCCCCCCCCCCCCCCCCCC/C=C(/OC(=O)[C@@H](C)c1ccc2cc(OC)ccc2c1)C(F)(F)F`, the Activity result is recorded as “Non-Toxic”.
`CCCCCCCC/C=C(/OC(=O)C(C)c1ccc(CC(C)C)cc1)C(F)(F)F` (centres undefined): the Activity result is “Non-Toxic”.
Take `CCCCCCCCCCCCC/C=C(/OC(=O)C(C)c1ccc(CC(C)C)cc1)C(F)(F)F` (centres undefined): the Activity result is given as “Non-Toxic”.
The same measure, in the same setting: as for `CCCCC/C=C\C/C=C\C/C=C\C/C=C\CC/C=C(/OC(=O)Cc1c(C)n(C(=O)c2ccc(Cl)cc2)c2ccc(OC)cc12)C(F)(F)F`, the entry is “Non-Toxic”.
The same measure, in the same setting: the value for `CCCCCCCCCCCCCCCCCC/C=C(/OC(=O)[C@@H](C)c1ccc2cc(OC)ccc2c1)C(F)(F)F` was “Non-Toxic”.

For a further data set, the system named is RAW264.7. Nature of the data set: Antiinflammatory activity in LPS-induced mouse RAW264.7 cells assessed as inhibition of NO production pretreated for 1 hr followed by LPS stimulation and measured after 24 hrs by griess reagent based assay. The class given is functional, cell-based.
Conditions: not given
Regarding `CCCCC/C=C\C/C=C\C/C=C\C/C=C\CC/C=C(/OC(=O)C(C)c1ccc(-c2ccccc2)c(F)c1)C(F)(F)F` (centres undefined), the pIC50 is 5.15.
As for `CCCCC/C=C\C/C=C\C/C=C\C/C=C\CC/C=C(/OC(=O)[C@@H](C)c1ccc2cc(OC)ccc2c1)C(F)(F)F`, the pIC50 was 5.18.
`CCCCC/C=C\C/C=C\C/C=C\C/C=C\CC/C=C(/OC(=O)C(C)c1ccc(CC(C)C)cc1)C(F)(F)F` (centres undefined): the pIC50 was 5.32.
